Test results reported in ChEMBL document CHEMBL4619786, “Discovery of Novel Resorcinol Dibenzyl Ethers Targeting the Programmed Cell Death-1/Programmed Cell Death-Ligand 1 Interaction as Potential Anticancer Agents” (J Med Chem, 2020).
Active and inactive are the calls of the source. The rule behind the calls is not given here.

Assays:
[1] = biological target: Programmed cell death protein 1/Programmed cell death 1 ligand 1 (Homo sapiens, UniProt Q9NZQ7); assay: Inhibition of human PD1/PDL1 protein-protein interaction by HTRF assay; type: protein-complex assay
[2] = AUC (0 to t) in Sprague-Dawley rat at 1 mg/kg, iv by LC-MS/MS analysis; type: ADME, organism-based; details: in vivo
[3] = Clearance in Sprague-Dawley rat at 1 mg/kg, iv by LC-MS/MS analysis; type: ADME, organism-based; details: in vivo
[4] = Volume of distribution at steady state in Sprague-Dawley rat at 1 mg/kg, iv by LC-MS/MS analysis; type: ADME, organism-based; details: in vivo, read-out: Vdss
[5] = AUC (0 to t) in Sprague-Dawley rat at 10 mg/kg, po by LC-MS/MS analysis; type: ADME, organism-based; details: in vivo
[6] = Volume of distribution at steady state in Sprague-Dawley rat at 10 mg/kg, po by LC-MS/MS analysis; type: ADME, organism-based; details: in vivo
[7] = Toxicity in Sprague-Dawley rat at 10 mg/kg, po; type: organism-based; details: in vivo
[8] = Toxicity in Sprague-Dawley rat at 1 mg/kg, iv; type: organism-based; details: in vivo
MCF7 = assay: Cytotoxicity against human MCF7 cells assessed as reduction in cell viability measured after 48 hrs by MTT assay; type: functional, cell-based; details: MCF7, 48 h
B16-F10 [9] = assay: Cytotoxicity against mouse B16/F10 cells assessed as reduction in cell viability measured after 48 hrs by MTT assay; type: functional, cell-based; details: B16-F10, 48 h
B16-F10 [10] = assay: Antitumor activity against mouse B16/F10 cells implanted in BALB/c mouse assessed as tumor weight at 25 mg/kg, ig administered once daily via gavage for 15 days measured 24 hrs post-last dose (reference value: 0.84 +/- 0.32 g); type: functional
B16-F10 [11] = assay: Antitumor activity against mouse B16/F10 cells implanted in BALB/c mouse assessed as tumor growth inhibition at 100 mg/kg, ig administered once daily via gavage for 15 days relative to control; type: functional; details: B16-F10, po, 360 h, read-out: TGI
[12] = Toxicity in mouse B16/F10 cells implanted […] mouse assessed as change in spleen weight at 25 to 100 mg/kg, ig administered once daily via gavage for 15 days measured 24 hrs post-last dose; type: organism-based; details: in vivo, po
H22 = assay: Antitumor activity against […] cells xenografted in BALB/c mouse assessed as tumor growth inhibition at 25 mg/kg, ip administered once daily 14 days relative to control; type: functional; details: 336 h, read-out: TGI
[13] = Selectivity ratio of IC50 for inhibition of mouse biotin-labelled C-terminal Fc-fused/Avi-tagged PD1/Fc-fused PDL1 expressed in HEK293 cells protein-protein interaction to IC50 for inhibition of human PD1/PDL1 protein-protein interaction; type: cell-based
[14] = Toxicity in mouse B16/F10 cells implanted […] mouse assessed as histological changes in kidney at 25 to 100 mg/kg, ig administered once daily via gavage for 15 days measured 24 hrs post-last dose by H and E staining based microscopic analysis; type: organism-based; details: in vivo, po
[15] = Toxicity in mouse B16/F10 cells implanted […] mouse assessed as histological changes in liver at 25 to 100 mg/kg, ig administered once daily via gavage for 15 days measured 24 hrs post-last dose by H and E staining based microscopic analysis; type: organism-based; details: in vivo, po
Mus musculus [16] = assay: Immunostimulatory activity in mouse B16/F10 cells implanted […] mouse assessed as activation of tumor microenvironment by measuring increase in tumor infiltrating lymphocytes at 25 to 100 mg/kg, ig administered once daily via gavage for 15 days measured 24 hrs post last dose by H and E staining-based microscopic method; type: functional, organism-based
Mus musculus [17] = assay: (§1) Immunostimulatory activity in mouse B16/F10 cells implanted […] mouse assessed as increase in activation of tumor-microenvironment mediated helper T cells in tumor by measuring CD4-positive cell population at 100 mg/kg, ig administered once daily via gavage for 15 days measured 24 hrs post-last dose by immunostaining based flow cytometry (reference value: 4.95%); type: functional
Mus musculus [18] = assay: as §1, with “CD3-positive/CD4-positive” for “CD4-positive”, “6.15%)” for “4.95%)”; type: functional
Mus musculus [19] = assay: as §1, with “activated cytotoxic” for “helper”, “CD3-positive/CD8-positive” for “CD4-positive”, “4.18%)” for “4.95%)”; type: functional
Mus musculus [20] = assay: as §1, with “50” for “100”; type: functional
Mus musculus [21] = assay: as §1, with “activated cytotoxic” for “helper”, “melanoma” for “CD4-positive”, “50” for “100”, “72.8%)” for “4.95%)”; type: functional
Mus musculus [22] = assay: as §1, with “25” for “100”; type: functional
Mus musculus [23] = assay: as §1, with “CD3-positive/CD4-positive” for “CD4-positive”, “25” for “100”, “6.15%)” for “4.95%)”; type: functional
Mus musculus [24] = assay: as §1, with “CD3-positive” for “CD4-positive”, “25” for “100”, “18.9%)” for “4.95%)”; type: functional
Mus musculus [25] = assay: as §1, with “activated cytotoxic” for “helper”, “melanoma” for “CD4-positive”, “25” for “100”, “72.8%)” for “4.95%)”; type: functional
Mus musculus [26] = assay: Effect on spleen helper T cell population in mouse B16/F10 cells implanted […] mouse assessed as CD3-positive/CD4-positive cell population at 100 mg/kg, ig administered once daily via gavage for 15 days measured 24 hrs post-last dose by immunostaining based flow cytometry (reference value: 27.7 %); type: ADME, organism-based; details: in vivo, po
Mus musculus [27] = assay: (§2) Effect on activated cytotoxic T cell population in mouse B16/F10 cells implanted […] mouse assessed as CD3-positive cell population in spleen at 100 mg/kg, ig administered once daily via gavage for 15 days measured 24 hrs post-last dose by immunostaining based flow cytometry (reference value: 27.5 %); type: organism-based; details: in vivo, po
Mus musculus [28] = assay: Effect on spleen helper T cell population in mouse B16/F10 cells implanted […] mouse assessed as CD4-positive cell population at 50 mg/kg, ig administered once daily via gavage for 15 days measured 24 hrs post-last dose by immunostaining based flow cytometry (reference value: 1.47 %); type: ADME, organism-based; details: in vivo, po
Mus musculus [29] = assay: as §2, with “CD3-positive/CD8-positive” for “CD3-positive”, “50” for “100”, “14.2” for “27.5”; type: organism-based; details: in vivo, po
Mus musculus [30] = assay: as §2, with “50” for “100”; type: organism-based; details: in vivo, po
Mus musculus [31] = assay: Effect on activated cytotoxic T cell population in mouse B16/F10 cells implanted […] mouse assessed as spleen cell population at 25 mg/kg, ig administered once daily via gavage for 15 days measured 24 hrs post-last dose by immunostaining based flow cytometry (reference value: 57.9 %); type: organism-based; details: in vivo, po
Mus musculus [32] = assay: as §2, with “25” for “100”; type: organism-based; details: in vivo, po

Chain of Programmed cell death protein 1/Programmed cell death 1 ligand 1 (Q15116 whole entry): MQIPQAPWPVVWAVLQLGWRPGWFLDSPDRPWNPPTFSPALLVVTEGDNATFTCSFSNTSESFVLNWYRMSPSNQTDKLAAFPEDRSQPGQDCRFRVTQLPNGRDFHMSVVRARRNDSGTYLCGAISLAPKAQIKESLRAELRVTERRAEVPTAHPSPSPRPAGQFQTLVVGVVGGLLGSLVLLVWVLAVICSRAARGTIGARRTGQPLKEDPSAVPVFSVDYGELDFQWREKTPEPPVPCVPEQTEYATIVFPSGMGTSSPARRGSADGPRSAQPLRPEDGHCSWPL
Chain of Programmed cell death protein 1/Programmed cell death 1 ligand 1 (Q9NZQ7 whole entry): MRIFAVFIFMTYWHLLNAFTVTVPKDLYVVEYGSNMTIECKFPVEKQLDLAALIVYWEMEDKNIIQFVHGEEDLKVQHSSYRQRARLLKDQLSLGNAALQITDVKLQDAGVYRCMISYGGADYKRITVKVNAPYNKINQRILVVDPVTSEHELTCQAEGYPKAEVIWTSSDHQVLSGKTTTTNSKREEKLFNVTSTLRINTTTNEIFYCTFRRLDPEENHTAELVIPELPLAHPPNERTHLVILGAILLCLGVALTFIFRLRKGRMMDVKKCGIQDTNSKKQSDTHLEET

SMILES: Cc1c(COc2cc(OCc3cccc(C#N)c3)c(CNC(C)(C)C(=O)O)cc2Cl)cccc1-c1ccccc1
- IC50 [1]: 0.0125 µM
- AUC(0-t) [2]: 0.967 µg·h/mL
- clearance [3]: 0.9 L/h/kg
- Vd [4]: 2.1 L/kg
- AUC(0-t) [5]: 0.41 µg·h/mL
- Vdss [6]: 290.3 L/kg
- Activity [7]: Non-Toxic
- Activity [8]: Non-Toxic
- IC50 (MCF7): > 10 µM
- IC50 (B16-F10 [9]): > 10 µM
- Activity (B16-F10 [10]): 0.41 g
- inhibition in vivo at 100 mg/kg (B16-F10 [11]): 80.9%
- Activity [12]: Non-Toxic
- inhibition in vivo at 25 mg/kg (H22): 76.5%
- Ratio IC50 [13]: > 80
- Activity [14]: Non-Toxic
- Activity [15]: Non-Toxic
- Activity (Mus musculus [16]): Active
- Activity (Mus musculus [17]): 1.3%
- Activity (Mus musculus [18]): 13.8%
- Activity (Mus musculus [19]): 23%
- Activity (Mus musculus [20]): 2.27%
- Activity (Mus musculus [21]): 64.9%
- Activity (Mus musculus [22]): 4.36%
- Activity (Mus musculus [23]): 15.4%
- Activity (Mus musculus [24]): 15%
- Activity (Mus musculus [25]): 59.4%
- Activity (Mus musculus [26]): 25%
- Activity (Mus musculus [27]): 25.4%
- Activity (Mus musculus [28]): 1.18%
- Activity (Mus musculus [29]): 15.5%
- Activity (Mus musculus [30]): 28.8%
- Activity (Mus musculus [31]): 62.7%
- Activity (Mus musculus [32]): 24.3%
